Experimental data reported in patent publication US10799456B2, “Multiple drug lipid nanoparticle composition and related methods for extended drug levels in blood and lymph tissue” (priority 2015, dated 2020).

Columns and labels:
[1] = % Drug association to particles by assembly method; format: physicochemical
Excerpt: Select one or two drugs hydrophilic and water soluble (Class 2) drugs listed in Table 19 (for example, tenofovir and/or emtricitabine and/or lamivudine). • 3. Select the excipient combination (for example, 9 parts DSPC and 1 part PEG-DSPE). • 4. Prepare a single-phase miscible solvent that enables full solubilization of the chosen water-insoluble Class 1 drugs and water soluble Class 2 drugs plus the excipients from step 3. Examples include CHCl3:Methanol:Water (65:35:4); CHCl3:Ethanol:Water (65:35:4); CHCl3:Propanol:Water (65:35:4); and CHCl3:Hexanol:Water (65:35:4). • 5. The components in Steps 1, 2 and 3 are solubilized with the miscible solvent in step 4. • 6. The drugs (steps 1 and 2) as well as excipients (step 3) and the miscible solvent (step 4) are dried under reduced pressure with assistance of a combination of heat, reduced pressure and/or aerosolization to provide for uniformity and efficiency of drying. • 7. The dehydrated composition is heated above gel-to-liquid phase transition temperature of the excipient mixture (e.g., 50° C.). • 8. A buffered saline solution is prepared and the temperature is equilibrated to the same temperature as dehydrated composition. • 9. The buffered saline solution and dehydrated composition are gradually combined and maintained at the defined (e.g., 50° C.) for 3 hr. • 10. The resulting hydrated multi-drug lipid nanoparticles are size-reduced by sheering or forcing through small orifice or pressurized filter apparatus while maintaining at the defined temperature (in liquid phase of lipidic excipients).

[2] = in vivo; details: for concentration at 24 h: sc, Mean drug concentration, Plasma
Excerpt: Four young adult male macaques (Macaca nemestrina, 2.9-4.0 kg) were housed and cared for by the Washington National Primate Research Center (WaNPRC) under an approved Institutional Animal Care and Use Committee protocol.
The vehicle for the first suspension was bicarbonate-buffered saline with 3% ethanol and 0.2% bovine serum albumin. The vehicle for the second suspension was bicarbonate-buffered saline with 8% DMSO and 0.1% Tween 20.
(§1) Four macaques were divided into two treatment groups (two animals per group). […] Data were normalized to the anti-HIV LNP dose for comparative analysis.
(§2) Plasma was removed, PBMCs were isolated by the density gradient method, and cells were aliquoted into pellets of approximately 2 million PBMCs each. An inguinal lymph node was surgically excised 24 h after drug administration (n=2 per treatment), LNMCs were isolated by passage through a 100-lm nylon cell strainer (Corning, Tewksbury, Mass.), and cells were aliquoted into pellets of approximately 1-2 million LNMCs each. All samples were stored at −80° C. prior to drug analysis.
(§3) Plasma concentrations of all three drugs were analyzed simultaneously by liquid chromatography-tandem mass spectrometry using a recently published method. […] Antimicrob Agents Chemother 2014; 58(5):2675-2680, incorporated herein by reference in its entirety. PBMC and LNMC pellets were lysed using 200 μl water/methanol (1:1 v/v), sonicated for 10 min, and then extracted and analyzed using the same method as cited above. Intracellular concentrations were converted to ng/ml with the assumption that each cell has a volume of 4×10^−9 ml. Alberts B, Johnson A, Lewis J, et al. Molecular Biology of the Cell, 4 ed. Garland Science, New York, 2002, incorporated herein by reference in its entirety.
Data were analyzed by paired two-tailed Student's t-test with p<0.05 considered statistically significant.

[3] = Sucrose gradient test of drug association; format: physicochemical; details: 5-20% sucrose gradient, 200,000 g, 4 hr; LPV/RTV/TFV LNPs, single miscible solvent method
Protocol: The sucrose gradient test to determine this characteristic is described in Example 5. Briefly, the sucrose gradient test comprises subjecting the multi-drug lipid nanoparticle to a continuous 5%-20% sucrose gradient and applying a centrifugal force of 200,000 g for 4 hours. The unassociated small molecules separate and float to the less dense fractions, whereas the associated small molecule agents sediment with the stable lipid nanoparticles in the denser gradients. The relative amounts of the unassociated and associated small molecule reagents can be quantified and, thus, compared.
The sucrose gradient test centrifugation test separates any unbound drugs from multi-drug lipid nanoparticles by sedimentation of lipid-drug particles through a sucrose gradient with increasing density to strip off unbound drugs. Under these conditions, all the free drugs in solution remained at (or floated to) the top of gradient where the sucrose density is low. Specifically, using a continuous gradient of 5-20% (with 65% cushion) sucrose, the lipid-drug particle mixture was subjected to centrifugal force at 200,000 g for 4 hr. Through this process, we were able to separate bound and unbound drug fractions. […] It is noted that the observed percentage of multi drug lipid nanoparticle association for the other two drugs (LPV and RTV) are consistent with data in Table 11.

[4] = tested on: HIV-2(287) replication; assay: Antiviral activity in HIV-infected CEM-174 cells; format: cell-based; details: Human immunodeficiency virus 2, CEM174, LPV:RTV:PMPA fixed 1:1:0.5 (m/m/m), LNP form; read-out: EC50 (nM), Drug-lipid nanoparticles with 3 drug combination
Protocol: The antiviral activity of the three-drug combination in soluble or LNP form was evaluated in HIV-infected CEM-174 cells as described previously. […] J Acquir Immune Defic Syndr 2003; 34(4):387-397, incorporated herein by reference in its entirety. […] The dose of drugs added to cells represents the sum of bound and unbound drugs in these anti-HIV LNP formulations.

[5] = in vivo; details: male, Macaca nemestrina, in vivo, sc, Mean drug concentration, Lymph node
Protocol: as §1, §2, §3

[6] = Storage stability at 4° C. (fraction of drug bound, dialysis); format: physicochemical
Protocol: To test the long-term stability, the multi-drug nanoparticles were stored under refrigeration at 4° C. and were tested for stability after a prolonged period. The lipid-drug combination particles are stable as determined by both particle size and degree of drug association (Table 12). […] Even the hydrophilic compound, which readily diffuses out of most lipid particles in a number of hours, loses a remarkably low fraction of the associated drug after 8, 12, and 17 months in storage. This exceptional stability provides a substantial advantage for translation to clinical application.

[7] = cited from earlier work
[8] = pH dependent drug release from LPV/RTV/TFV lipid nanoparticles; format: physicochemical; details: 2 hrs
Excerpt: As described above, we established the pH-dependent association of various drugs to lipids at neutral pH and the consequent release of the drugs when pH is lowered. Also described above, this stable integration and pH-dependent release of drugs from the multiple drug lipid nanoparticles was consistent for both lipophilic and water soluble compounds. To confirm the pH dependent release of the individual drugs from the multiple drug combination lipid nanoparticles, LPV/RTV/PMPA(TFV) lipid nanoparticles, assembled as described above, were subjected to different pH environments, and the free drug component of the supernatant was assayed to determine the amount of release. […] When a lipid nanoparticle is localized in tissues and taken up by HIV-infected cells, the incorporated antiretroviral drugs are then released inside the cell organelles (such as endosome and lysosomes) when the pH is lowered.

[9] = Drug incorporation/encapsulation (association) efficiency of multi-drug LNPs by dialysis; format: physicochemical; details: for Degree of incorporation (% total): anti-HIV LNPs LPV/RTV/PMPA
Protocol: The anti-HIV LNP formulations contain both unbound drug and drugs bound to lipid nanoparticles. […] Drugs were quantified by LC-MS/MS using acetonitrile precipitation. Encapsulation efficiency (EE) was calculated as follows: […]

[10] = tested on: HIV-1; assay: microbe, parasite or virus in culture; details: Human immunodeficiency virus 1, read-out: EC50 in LNP form
[11] = male, Macaca nemestrina, in vivo

Cc1cccc(C)c1OCC(=O)N[C@@H](Cc1ccccc1)[C@@H](O)C[C@H](Cc1ccccc1)NC(=O)[C@H](C(C)C)N1CCCNC1=O [Lopinavir (LPV), Lopinavir]
% Drug Association to Particles, LNPs from mixture of dual solvent method [1]: 80-100% | % Drug Association to Particles, LNPs from single, miscible solvent method [1]: 90-100% | AUC 0-8 (%) of total, LNP [2, 11]: 9.9% | AUC 8-168 (%) of total, LNP [2, 11]: 90.1% | AUC fraction (% of total) Anti-HIV LNP 24-168 h [2, 11]: 62.8 ± 9.9% | concentration at 24 h ([2]; male, Macaca nemestrina, in vivo, Anti-HIV LNP treatment): 596 ± 123 ng/mL | concentration at 24 h ([2]; male, Macaca nemestrina, in vivo, Free drug treatment): 24.5 ± 26.3 ng/mL | AUC Free drug 0-168 h ([2]; plasma, sc 25/14.3/17.1 mg/kg LPV/RTV/PMPA, four animals): 3830 ± 4040 ng·h/mL | % association to lipid-drug particles (bound fraction) [3]: 81.8% | EC50 [4]: 3 ± 0.8 nM | concentration at 24 h ([5]; Anti-HIV LNP treatment): 1212 ± 9.8 ng/mL | concentration at 24 h ([5]; Free drug treatment): 0 ng/mL | Fraction of drug bound in multi-drug nanoparticles (% total) ([6]; 0 months): 82.70 ± 7.00% | Fraction of drug bound in multi-drug nanoparticles (% total) ([6]; 8 months): 95.33 ± 7.53% | Fraction of drug bound in multi-drug nanoparticles (% total) ([6]; 12 months): 94.62 ± 11.86% | Fraction of drug bound in multi-drug nanoparticles (% total) ([6]; 17 months, one batch): 92.89% | Water solubility @ 25° C. [7]: 7.7 ng/mL | % Drug released from anti-HIV nanoparticles ([8]; pH 4.0, 37° C.): 93.7 ± 1.2% | % Drug released from anti-HIV nanoparticles ([8]; pH 5.5, 37° C.): 28.9 ± 1.4% | % Drug released from anti-HIV nanoparticles ([8]; pH 6.5, 37° C.): 3.9 ± 2.7% | % Drug released from anti-HIV nanoparticles ([8]; pH 7.4, 37° C.): 1 ± 0.6% | % particle-bound ([9]; Combination 1, lipid:LPV:RTV:TFV 115:10:5:15, large scale): (86.4 ± 0.9) % | % particle-bound ([9]; Combination 3, lipid:LPV:EFV:TFV 200:26.6:20:40, large scale): (76.6) % | Degree of incorporation (% total) ([9]; clinical scale (15-40 ml)): 93.6 ± 5.5% | Degree of incorporation (% total) ([9]; laboratory scale (0.1-0.4 ml)): 74.2 ± 7.3% | EC50 [10]: 30 ± 0.8 nM
